Measured values published in ChEMBL document CHEMBL5131440, “Antischistosomal tetrahydro-γ-carboline sulfonamides” (Bioorg Med Chem Lett, 2022).
Values after ≈ are worked out from the molar mass of the structure shown.

Experiments:
[1] = Lipophilicity, log D of compound at pH 7.4 by gradient HPLC analysis; type: physicochemical; conditions: buffer
[2] = Intrinsic clearance in mouse liver microsomes assessed per mg protein at 1 uM preincubated for 5 to 10 mins followed by NADPH-regenerating system addition and measured after 2 to 60 mins by LC-MS/MS analysis; type: ADME, Microsome; conditions: time 2-60 min
[3] = Solubility of compound in pH 6.5 phosphate buffer by nephelometry; type: physicochemical
[4] = Cytotoxicity against rat L6 cells assessed as reduction in cell viability measured after 70 hrs by alamar blue reagent based fluorescence assay; type: toxicity
[5] = Intrinsic clearance in human liver microsomes assessed per mg protein at 1 uM preincubated for 5 to 10 mins followed by NADPH-regenerating system addition and measured after 2 to 60 mins by LC-MS/MS analysis; type: ADME, Microsome; conditions: time 2-60 min
[6] = Solubility of compound in pH 2 0.01 M HCl by nephelometry; type: physicochemical
Schistosoma mansoni [7] = assay: Antischistosomal activity against Schistosoma mansoni adult worms at 10 uM measured at 24 hrs interval for 72 hrs relative to control; type: functional
Schistosoma mansoni [8] = assay: Antischistosomal activity against Schistosoma mansoni NTS assessed as reduction in parasite viability measured at 24 hrs interval for 72 hrs by bright-field microscopy; type: functional, organism-based
Schistosoma mansoni [9] = assay: Antischistosomal activity against Schistosoma mansoni adult worms measured at 24 hrs interval for 72 hrs; type: functional, organism-based
Schistosoma mansoni [10] = assay: Antischistosomal activity against Schistosoma mansoni Liberian adult worms assessed as reduction in worm viability measured after 72 hrs by microscopy; type: functional, organism-based

SMILES | logD [1] | intrinsic clearance (CLint) [2] [µL/min] | solubility kinetic [3] [µg/mL] | IC50 at 70 h [4] [µM] | intrinsic clearance [5] [µL/min] | solubility kinetic [6] [µg/mL] | Activity (Schistosoma mansoni [7]) [%] | IC50 (Schistosoma mansoni [8]) [µM] | IC50 (Schistosoma mansoni [9]) [µM] | IC50 (Schistosoma mansoni [10]) [µM]
Cc1ccc(S(=O)(=O)N2CCc3[nH]c4ccccc4c3C2)cc1 | 4.1 | 540 | 1.6 (≈ 4.9 µM) | 29 | 170 | 1.6 (≈ 4.9 µM) | – | – | – | –
NC(=O)c1ccc2[nH]c3c(c2c1)CN(S(=O)(=O)c1ccc(F)cc1)CC3 | 2.6 | 81 | 6.3 (≈ 16.9 µM) | 100 | 124 | 12.5 (≈ 33.5 µM) | – | – | – | –
O=C(Nc1ccc(F)cc1)N1CCc2[nH]c3ccccc3c2C1 | 3.4 | 130 | 6.3 (≈ 20.4 µM) | 85 | 82 | 6.3 (≈ 20.4 µM) | – | – | – | –
O=S(=O)(c1ccc(C(F)(F)F)cc1)N1CCc2[nH]c3ccccc3c2C1 | 4.3 | 431 | < 1.6 | 81 | 50 | < 1.6 | – | – | – | –
O=S(=O)(c1ccccc1)N1CCc2[nH]c3ccccc3c2C1 | 3.9 | > 866 | 1.6 (≈ 5.12 µM) | 100 | 250 | 1.6 (≈ 5.12 µM) | – | – | – | –
O=C(c1ccc(F)cc1)N1CCc2[nH]c3ccccc3c2C1 | 3.3 | 184 | 6.3 (≈ 21.4 µM) | 69 | 111 | 6.3 (≈ 21.4 µM) | 24 | – | – | –
O=S(=O)(c1ccc(F)cc1)N1CCc2[nH]c3ccc(F)cc3c2C1 | 4.1 | > 866 | 1.6 (≈ 4.59 µM) | 150 | 105 | 3.1 (≈ 8.9 µM) | – | – | – | –
O=S(=O)(c1ccc(Cl)cc1)N1CCc2[nH]c3ccccc3c2C1 | 4.2 | 607 | 1.6 (≈ 4.61 µM) | 53 | 74 | 1.6 (≈ 4.61 µM) | – | – | – | –
O=S(=O)(c1ccc(F)cc1)N1CCc2[nH]c3ccccc3c2CC1 | 4.2 | > 866 | < 1.6 | 83 | 123 | < 1.6 | – | – | – | –
O=S(=O)(Cc1ccc(F)cc1)N1CCc2[nH]c3ccccc3c2C1 | 3.9 | 688 | 1.6 (≈ 4.65 µM) | 56 | 135 | 3.1 (≈ 9 µM) | – | – | – | –
O=S(=O)(c1ccc(Br)cc1)N1CCc2[nH]c3ccccc3c2C1 | 4.4 | 446 | < 1.6 | 26 | 102 | < 1.6 | 67 | 4.9 | 4.4 | –
O=C(O)c1ccc(S(=O)(=O)N2CCc3[nH]c4ccccc4c3C2)cc1 | 1.6 | < 7 | 25 (≈ 70.1 µM) | 190 | 11 | 3.1 (≈ 8.7 µM) | – | – | – | –
O=C(c1ccc2[nH]c3c(c2c1)CN(S(=O)(=O)c1ccc(F)cc1)CC3)N1CCOCC1 | 3 | 120 | 6.3 (≈ 14.2 µM) | 130 | 89 | 12.5 (≈ 28.2 µM) | – | – | – | –
CS(=O)(=O)c1ccc(S(=O)(=O)N2CCc3[nH]c4ccccc4c3C2)cc1 | 3.4 | 156 | 3.1 (≈ 7.94 µM) | > 250 | 57 | 3.1 (≈ 7.94 µM) | 43 | 3.3 | – | –
O=S(=O)(C1CCOCC1)N1CCc2[nH]c3ccccc3c2C1 | 2.9 | 674 | 25 (≈ 78 µM) | 160 | 34 | 25 (≈ 78 µM) | – | – | – | –
O=S(=O)(c1ccc(F)cc1)N1CCc2c([nH]c3ccccc23)C1 | 4.1 | 445 | < 1.6 | 53 | 120 | < 1.6 | – | – | – | –
O=S(=O)(c1cccnc1)N1CCc2[nH]c3ccccc3c2C1 | 3.1 | 561 | 6.3 (≈ 20.1 µM) | 110 | 117 | 12.5 (≈ 39.9 µM) | – | – | – | –
O=S(=O)(c1ccc(F)cc1)N1CCc2[nH]c3ccccc3c2C1 | 4 | > 866 | 1.6 (≈ 4.84 µM) | 52 | 120 | 1.6 (≈ 4.84 µM) | 59 | 1.2 | 4.2 | –
O=C1CCN(S(=O)(=O)c2ccc(F)cc2)CC(=O)c2ccccc2N1 | 2.5 | 107 | 50 (≈ 138 µM) | > 280 | 40 | 50 (≈ 138 µM) | – | – | – | –
O=S(=O)(c1ccc(F)cc1)N1CCc2[nH]c3ncccc3c2C1 | 3.2 | 339 | 12.5 (≈ 37.7 µM) | 82 | 62 | 50 (≈ 151 µM) | – | – | – | –
CS(=O)(=O)N1CCc2[nH]c3ccccc3c2C1 | 2.6 | 21 | 25 (≈ 99.9 µM) | 290 | 12 | 25 (≈ 99.9 µM) | – | – | – | –
O=S(=O)(c1cnc[nH]1)N1CCc2[nH]c3ccccc3c2C1 | 2 | 17 | 50 (≈ 165 µM) | 170 | < 7 | 50 (≈ 165 µM) | – | – | – | –
O=C(O)c1ccc2[nH]c3c(c2c1)CN(S(=O)(=O)c1ccc(F)cc1)CC3 | 1.4 | < 7 | 50 (≈ 134 µM) | 240 | < 7 | 3.1 (≈ 8.28 µM) | – | – | – | –
N#Cc1ccc2[nH]c3c(c2c1)CN(S(=O)(=O)c1ccc(F)cc1)CC3 | 3.8 | 230 | 1.6 (≈ 4.5 µM) | 33 | 399 | 1.6 (≈ 4.5 µM) | – | – | – | –
NC(=O)Cn1c2c(c3ccccc31)CN(S(=O)(=O)c1ccc(F)cc1)CC2 | – | 176 | 3.1 (≈ 8 µM) | 150 | 75 | 3.1 (≈ 8 µM) | – | – | – | –
O=C(C1CCCCC1)N1CC(=O)N2CCc3ccccc3C2C1 (centres undefined) [PRAZIQUANTEL] | – | – | – | – | – | – | – | – | – | 0.077
